Consider eleven compounds from patent US5338747A, “Benzoisothiazolinone-1-dioxide derivatives as elastase inhibitors” (Chesebrough-Pond's USA Co., Division of Conopco, Inc., priority 1990, dated 1994).

Experiment [1] concerns the target T1, Human leucocytic elastase (Homo sapiens, UniProt P08246).
T1 sequence (P08246 30-247 limits assumed): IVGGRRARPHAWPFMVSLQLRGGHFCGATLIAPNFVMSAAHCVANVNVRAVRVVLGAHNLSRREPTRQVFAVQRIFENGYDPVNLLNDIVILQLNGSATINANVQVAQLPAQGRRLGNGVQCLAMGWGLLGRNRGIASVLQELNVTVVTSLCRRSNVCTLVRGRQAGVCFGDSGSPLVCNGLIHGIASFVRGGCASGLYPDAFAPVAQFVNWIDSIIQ
Briefly: Inhibition of human leucocytic elastase (succinyltrialanine p-nitroanilide substrate). The format is biochemical. As to conditions: elastase 1 μg/ml, pre-incubated 15 min; 1% acetone; 410 nm. How it is done: (§1) The inhibition test was carried out by using succinyltrialanine p-nitroanilide as a synthetic substrate. Human leucocytic elastase, used at a concentration of 1 μg/ml, was first pre-incubated for 15 min with the compounds of the invention, used at a concentration of 0.5, 5, 10, 25 and 50 μg/ml. These compounds were added in the form of a solution in acetone, the final acetone concentration of the reaction mixture being 1%.
The degree of hydrolysis of the substrate was determined by measuring the amount of p-nitroaniline released, using a Philips PO 8700 spectrophotometer at 410 nm. The 50% inhibitory concentration (IC50) in mole/liter was then determined by a graphical method, using the inhibition values obtained with the different concentrations of the substrate and the inhibitor. […] It can thus be seen that the inhibitory action of these compounds increases with the number of carbon atoms in the R^2 group on going from C9 to C17.

Experiment [2] has as its target T1, Human leucocytic elastase. The experiment in a line: Serine protease inhibition, E/IC50: human leucocytic elastase. The experiment is classed as biochemical. Conditions: human leucocytic elastase vs thrombin. The protocol:
as §1
The degree of hydrolysis of the substrate was determined by measuring the amount of p-nitroaniline released, using a Philips PO 8700 spectrophotometer at 410 nm. […]
The inhibition exerted by the following two compounds on serine-containing proteases other than human Teucocytic elastase was determined in this Example: […]
The appropriate substrate was then added to each enzyme, and its hydrolysis was monitored with a Philips 8700 spectrophotometer at 410 nm by measuring the amount of p-nitroaniline appearing in the medium. […]
(§2) Inhibition of human leucocytic elastase was also determined, as in Example 12.
(§3) To be able to compare the inhibitory power of the compounds tested on the various enzymes used, the E/IC50 value was calculated, where E is the concentration of the enzyme in the reaction mixture (also expressed in mole/l ). […]

Experiment [3] concerns the target Pig pancreatic elastase (Sus scrofa, UniProt P00772). The experiment in a line: Serine protease inhibition, E/IC50: pig pancreatic elastase. The format is biochemical. Conditions: pig pancreatic elastase vs thrombin. The protocol:
(§4) The inhibition exerted by the following two compounds on serine-containing proteases other than human Teucocytic elastase was determined in this Example:
(§5) More specifically, the activity of a) pig pancreatic elastase, b) trypsin, c) thrombin and d) plasmin was determined in the presence of these inhibitors and of the synthetic substrates: a) succinyltrialanine p-nitroanilide, b) N-benzoyl-DL-arginine p-nitroanilide, c) N-p-tosyl-gly-pro-arg p-nitroanilide and d) N-p-tosyl-gly-pro-lys p-nitroanilide, respectively.
(§6) Each enzyme was first incubated for 15 min with 0-50 μg/ml of compound B or P mentioned above, which had been dissolved in acetone as in the test with human leucocytic elastase, the final concentration of this solvent in the reaction mixture being 1%.
(§7) The appropriate substrate was then added to each enzyme, and its hydrolysis was monitored with a Philips 8700 spectrophotometer at 410 nm by measuring the amount of p-nitroaniline appearing in the medium.
(§8) The results were used to plot the inhibition of the enzymatic activity against the amount of inhibitor present in the medium. […]
as §3

Experiment [4] addresses T2, Trypsin (Bos taurus, UniProt P00760).
T2 sequence (P00760 24-246): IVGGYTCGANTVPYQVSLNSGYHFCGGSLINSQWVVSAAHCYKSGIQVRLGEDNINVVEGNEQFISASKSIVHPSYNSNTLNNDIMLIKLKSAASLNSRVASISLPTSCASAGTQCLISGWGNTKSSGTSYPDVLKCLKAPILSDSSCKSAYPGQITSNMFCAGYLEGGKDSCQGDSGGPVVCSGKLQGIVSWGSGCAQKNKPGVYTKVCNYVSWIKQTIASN
The experiment in a line: Serine protease inhibition, E/IC50: trypsin. The experiment is classed as biochemical. The protocol:
as §4, §5, §6, §7
The results were used to plot the inhibition of the enzymatic activity against the amount of inhibitor present in the medium. These curves were then used to find the median inhibitory concentration (IC50) in mole/l, which inhibits 50% of the enzymatic activity.
To be able to compare the inhibitory power of the compounds tested on the various enzymes used, the E/IC50 value was calculated, where E is the concentration of the enzyme in the reaction mixture (also expressed in mole/l ). The higher the value of this quotient, the stronger the inhibitory activity, and therefore the lower the number of moles of the inhibitor that are needed to obtain a 50% inhibition for the same number of moles of the enzyme.

Experiment [5] relates to serine proteases. The experiment in a line: Comparison of inhibitory power over all serine proteases used (E/IC50). Conditions: all enzymes of Table 2. The format is biochemical. How it is done: as §4, §5, §6, §7, §8, §2, §3
Experiment [6] deals with Plasmin. Briefly: Serine protease inhibition, E/IC50: plasmin. The experiment is classed as biochemical. How it is done: as §4, §5, §6, §7, §8, §3
Experiment [7] has as its target T1, Human leucocytic elastase. Briefly: Direct inhibition of elastin-cleaving activity of human leucocytic elastase (first series, elastase pre-incubated with compound). The format is biochemical. Conditions: pH 8.4, 7 h at 37° C. The protocol:
1) Inhibitory action […] Tritiated insoluble elastin extracted from the nuchal ligament was then added in a concentration of 75 μg/ml, corresponding to a radioactivity level of 2.2×10^6 counts per minute (cpm) per ml. The degree of the hydrolysis of elastin was calculated in all three cases after incubation with elastase for 7 h at 37° C. by determining the radioactivity in the solubilized peptides derived from the elastin.

For experiment [8], the target named is T1, Human leucocytic elastase. The experiment in a line: Protective action on insoluble elastin against human leucocytic elastase (second and third series, elastin pre-incubated with compound). The format is biochemical. Conditions: 50-100 μg/ml, elastin first incubated with compound 30 min or 10 min. How it is done:
Tritiated insoluble elastin extracted from the nuchal ligament was then added in a concentration of 75 μg/ml, corresponding to a radioactivity level of 2.2×10^6 counts per minute (cpm) per ml. 2) Protective action […] 3) Third series […] The mixture was then centrifuged, the supernatant was discarded, and the residue was suspended in the buffer that contained human leucocytic elastase. The degree of the hydrolysis of elastin was calculated in all three cases after incubation with elastase for 7 h at 37° C. by determining the radioactivity in the solubilized peptides derived from the elastin.

Experiment [9] concerns the target T1, Human leucocytic elastase. The experiment in a line: Protective action on the elastin in rabbit skin sections treated with human leucocytic elastase. As to conditions: 1.5 h at 37° C. The protocol:
The segments of rabbit skin were incubated for 1.5 h at 37° C. In the control experiment, they were incubated only with the buffer (100-mM tris-HCl, 0.1% of Brij 35, pH 8) under the same conditions. Thin sections of the skin specimens were then fixed for 2 min in 95% ethanol and stained for 3 h by a modified Verhoeff method, described by Godeau et al. [cf. Pathol. Biol., 32 (1984) pp. 215-6]. After a suitable contrast treatment, the surface density of the elastic fibres was determined by automatic image analysis, carried out directly on the microscope slides.

The IC50 is the concentration needed to halve the response being measured.

Pig pancreatic elastase, sequence (P00772 27-266): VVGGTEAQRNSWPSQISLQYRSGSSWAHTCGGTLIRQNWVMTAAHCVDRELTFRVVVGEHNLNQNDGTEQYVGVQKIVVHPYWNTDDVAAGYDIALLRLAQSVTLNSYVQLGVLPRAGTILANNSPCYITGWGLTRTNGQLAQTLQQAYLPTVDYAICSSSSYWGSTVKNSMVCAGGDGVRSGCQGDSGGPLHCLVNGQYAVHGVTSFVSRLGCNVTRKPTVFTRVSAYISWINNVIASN

The compound `CCCCCCCCCCCCCCCC(=O)N1C(=O)c2ccccc2S1(=O)=O` [Example 3, 2-palmitoyl-benzisothiazolinone-1-dioxide] had an IC50 in [1] of 2.1 µM. Further, the “inhibition relative to thrombin” value in experiment [2], in [3] and in experiment [4] (trypsin vs thrombin) was 20-40 times each time. For the same compound, the “inhibitory power relative to butyrylbenzisothiazolinone-1-dioxide (in words)” value in experiment [5] was “better inhibitor than butyrylbenzisothiazolinone-1-dioxide, irrespective of the enzyme used”.
On to `CCCC(=O)N1C(=O)c2ccccc2S1(=O)=O` [2-butyryl-benzisothiazolinone-1-dioxide], for which the “inhibition relative to thrombin (in words)” value in [2] and in [3] was “more strongly than it inhibits thrombin” each time. The “effect on trypsin (in words)” value in experiment [4] (0-50 μg/ml) is listed as “activates trypsin”. Moreover, the E/IC50 result in experiment [4] (E = enzyme concentration (mole/l), N-benzoyl-DL-arginine p-nitroanilide substrate) was “activator”; in [6] (E = enzyme concentration (mole/l), N-p-tosyl-gly-pro-lys p-nitroanilide substrate) it was “inactive”. In addition, the “effect on plasmin (in words)” value in experiment [6] (0-50 μg/ml) is “no effect on plasmin”.
In experiment [1], `CCCCCCCCCC(=O)N1C(=O)c2ccccc2S1(=O)=O` [Example 5] returned an IC50 of 86 µM.
Regarding `C=CCCCCCCCCC(=O)N1C(=O)c2ccccc2S1(=O)=O` [Example 6, 2-undecenoylbenzisothiazolinone-1-dioxide], in [1], 75 µM corresponded to half-maximal inhibition (IC50).
Take `O=C(C=Cc1ccccc1)N1C(=O)c2ccccc2S1(=O)=O` [Example 8]: the IC50 in experiment [1] worked out at 90 µM.
On the same count and under the same terms, the result for `COc1ccc(C=CC(=O)N2C(=O)c3ccccc3S2(=O)=O)cc1OC` [Example 7, 2-[(3,4)-dimethoxycinnamoyl]-benzisothiazolinone-1-dioxide] reads 5 µM; that for `CCCCCCCCCCCCCCCCCC(=O)N1C(=O)c2ccccc2S1(=O)=O` [Example 4, 2-stearoylbenzisothiazolinone-1-dioxide], 4.7 µM; that for `CCCCCCCCCCCCCC(=O)N1C(=O)c2ccccc2S1(=O)=O` [Example 2, 2-myristoylbenzisothiazolinone-1-dioxide], 9.2 µM.
The same measure, in the same setting: for `O=C(CCc1ccccc1)N1C(=O)c2ccccc2S1(=O)=O` [Example 9] the value was 48 µM.
Regarding `CCCCCCCCCCCC(=O)N1C(=O)c2ccccc2S1(=O)=O` [Example 1, 2-lauroylbenzisothiazolinone-1-dioxide], the IC50 was found to be 11 µM in [1] and 75 µM in [7] (elastase 1 μg/ml incubated 10 min with compound). Moreover, the inhibition at 45 µg/mL in [7] (45 μg/ml, elastase 1 μg/ml, tritiated insoluble elastin 75 μg/ml) was found to be 80%. For the same compound, in [8], the “maximum inhibition (protection of insoluble elastic fibres)” value is recorded as 50%. Further, the “volume fraction V occupied by the cutaneous elastic fibres” value in [9] (elastase 15 μg/ml + compound 350 μg/ml, V without elastase 6.25±0.5%, with elastase alone 4.1±0.8%) was 6.00±1%. Also, the inhibition at 350 µg/mL in [9] (pH 8, elastase 15 μg/ml + compound 350 μg/ml, read-out: protection from the action of elastase) came to 96%.
For the compound `COc1ccc(CCCC(=O)N2C(=O)c3ccccc3S2(=O)=O)cc1` [Example 10], the 50% inhibitory concentration (IC50) in experiment [1] was found to be 36 µM.
